# Columns and labels:
# Assay type in all cases: functional
# A549 = experiment: Cytotoxicity against human A549/ATCC cells assessed as growth inhibition after 48 hrs by sulforhodamine B assay; conditions: A549, 48 h
# MDA-MB-231 [1] = experiment: Cytotoxicity against human MDA-MB-231 cells assessed as growth inhibition after 48 hrs by sulforhodamine B assay; conditions: MDA-MB-231, 48 h
# CCRF-CEM = experiment: Cytotoxicity against human CCRF-CEM cells assessed as cell growth at 0.01 uM after 48 hrs by sulforhodamine B assay relative to control; conditions: read-out: Activity
# SK-MEL-5 [2] = experiment: Cytotoxicity against human SK-MEL-5 cells assessed as cell growth at 0.01 uM after 48 hrs by sulforhodamine B assay relative to control; conditions: SK-MEL-5, 48 h, read-out: Activity
# U-251 = experiment: Cytotoxicity against human U251 cells assessed as cell growth at 0.01 uM after 48 hrs by sulforhodamine B assay relative to control; conditions: U-251, 48 h, read-out: Activity
# SF-539 [3] = experiment: Cytotoxicity against human SF539 cells assessed as cell growth at 0.01 uM after 48 hrs by sulforhodamine B assay relative to control; conditions: SF-539, 48 h, read-out: Activity
# RPMI-8226 [4] = experiment: Cytotoxicity against human RPMI8226 cells assessed as cell growth at 0.01 uM after 48 hrs by sulforhodamine B assay relative to control; conditions: RPMI-8226, 48 h, read-out: Activity
# RXF 393 = experiment: Cytotoxicity against human RXF393 cells assessed as cell growth at 0.01 uM after 48 hrs by sulforhodamine B assay relative to control; conditions: RXF 393, 48 h, read-out: Activity
# MDA-MB-231 [5] = experiment: Cytotoxicity against human MDA-MB-231 cells assessed as cell growth at 0.01 uM after 48 hrs by sulforhodamine B assay relative to control; conditions: MDA-MB-231, 48 h, read-out: Activity
# MDA-MB-468 [6] = experiment: Cytotoxicity against human MDA-MB-468 cells assessed as cell growth at 0.01 uM after 48 hrs by sulforhodamine B assay relative to control; conditions: MDA-MB-468, 48 h, read-out: Activity
# RPMI-8226 [7] = experiment: Cytotoxicity against human RPMI8226 cells assessed as cell growth at 0.1 uM after 48 hrs by sulforhodamine B assay relative to control; conditions: RPMI-8226, 48 h, read-out: Activity
# HOP-62 = experiment: Cytotoxicity against human HOP62 cells assessed as cell growth at 0.1 uM after 48 hrs by sulforhodamine B assay relative to control; conditions: HOP-62, 48 h, read-out: Activity
# HCC 2998 = experiment: Cytotoxicity against human HCC2998 cells assessed as cell growth at 0.1 uM after 48 hrs by sulforhodamine B assay relative to control; conditions: HCC 2998, 48 h, read-out: Activity
# SF-268 = experiment: Cytotoxicity against human SF268 cells assessed as cell growth at 0.1 uM after 48 hrs by sulforhodamine B assay relative to control; conditions: SF-268, 48 h, read-out: Activity
# UACC-62 [8] = experiment: Cytotoxicity against human UACC62 cells assessed as cell growth at 0.1 uM after 48 hrs by sulforhodamine B assay relative to control; conditions: UACC-62, 48 h, read-out: Activity
# SK-OV-3 = experiment: Cytotoxicity against human SKOV3 cells assessed as cell growth at 0.1 uM after 48 hrs by sulforhodamine B assay relative to control; conditions: SK-OV-3, 48 h, read-out: Activity
# MOLT-4 = experiment: Cytotoxicity against human MOLT4 cells assessed as cell growth at 1 uM after 48 hrs by sulforhodamine B assay relative to control; conditions: MOLT-4, 48 h, read-out: Activity
# SR = experiment: Cytotoxicity against human SR cells assessed as cell growth at 1 uM after 48 hrs by sulforhodamine B assay relative to control; conditions: read-out: Activity
# NCI-H23 = experiment: Cytotoxicity against human NCI-H23 cells assessed as cell growth at 1 uM after 48 hrs by sulforhodamine B assay relative to control; conditions: NCI-H23, 48 h, read-out: Activity
# NCI-H322M = experiment: Cytotoxicity against human NCI-H322M cells assessed as cell growth at 1 uM after 48 hrs by sulforhodamine B assay relative to control; conditions: read-out: Activity
# COLO 205 = experiment: Cytotoxicity against human COLO205 cells assessed as cell growth at 1 uM after 48 hrs by sulforhodamine B assay relative to control; conditions: COLO 205, 48 h, read-out: Activity
# UACC-257 = experiment: Cytotoxicity against human UACC257 cells assessed as cell growth at 1 uM after 48 hrs by sulforhodamine B assay relative to control; conditions: UACC-257, 48 h, read-out: Activity
# IGROV-1 = experiment: Cytotoxicity against human IGROV1 cells assessed as cell growth at 1 uM after 48 hrs by sulforhodamine B assay relative to control; conditions: IGROV-1, 48 h, read-out: Activity
# DU-145 = experiment: Cytotoxicity against human DU145 cells assessed as cell growth at 1 uM after 48 hrs by sulforhodamine B assay relative to control; conditions: DU-145, 48 h, read-out: Activity
# MDA-MB-231 [9] = experiment: Cytotoxicity against human MDA-MB-231 cells assessed as cell growth at 1 uM after 48 hrs by sulforhodamine B assay relative to control; conditions: MDA-MB-231, 48 h, read-out: Activity
# MDA-MB-468 [10] = experiment: Cytotoxicity against human MDA-MB-468 cells assessed as cell growth at 1 uM after 48 hrs by sulforhodamine B assay relative to control; conditions: MDA-MB-468, 48 h, read-out: Activity
# NCI-H226 = experiment: Cytotoxicity against human NCI-H226 cells assessed as cell growth at 10 uM after 48 hrs by sulforhodamine B assay relative to control; conditions: NCI-H226, 48 h, read-out: Activity
# SF-539 [11] = experiment: Cytotoxicity against human SF539 cells assessed as cell growth at 10 uM after 48 hrs by sulforhodamine B assay relative to control; conditions: SF-539, 48 h, read-out: Activity
# OVCAR-3 = experiment: Cytotoxicity against human OVCAR3 cells assessed as cell growth at 10 uM after 48 hrs by sulforhodamine B assay relative to control; conditions: OVCAR-3, 48 h, read-out: Activity
# MCF7 = experiment: Cytotoxicity against human MCF7 cells assessed as cell growth at 10 uM after 48 hrs by sulforhodamine B assay relative to control; conditions: MCF7, 48 h, read-out: Activity
# HCT-15 = experiment: Cytotoxicity against human HCT15 cells assessed as cell growth at 100 uM after 48 hrs by sulforhodamine B assay relative to control; conditions: HCT-15, 48 h, read-out: Activity
# SF-539 [12] = experiment: Cytotoxicity against human SF539 cells assessed as cell growth at 100 uM after 48 hrs by sulforhodamine B assay relative to control; conditions: SF-539, 48 h, read-out: Activity
# SK-MEL-5 [13] = experiment: Cytotoxicity against human SK-MEL-5 cells assessed as cell growth at 100 uM after 48 hrs by sulforhodamine B assay relative to control; conditions: SK-MEL-5, 48 h, read-out: Activity
# UACC-62 [14] = experiment: Cytotoxicity against human UACC62 cells assessed as cell growth at 100 uM after 48 hrs by sulforhodamine B assay relative to control; conditions: UACC-62, 48 h, read-out: Activity
# TK-10 = experiment: Cytotoxicity against human TK10 cells assessed as cell growth at 100 uM after 48 hrs by sulforhodamine B assay relative to control; conditions: TK-10, 48 h, read-out: Activity
SMILES,LC50 (concentration giving 50% net cell kill) (A549) [µM],TGI (A549) [µM],LC50 (MDA-MB-231 [1]) [µM],TGI (MDA-MB-231 [1]) [µM],growth at 0.01 µM (CCRF-CEM) [%],growth at 0.01 µM (SK-MEL-5 [2]) [%],growth at 0.01 µM (U-251) [%],growth at 0.01 µM (SF-539 [3]) [%],growth at 0.01 µM (RPMI-8226 [4]) [%],growth at 0.01 µM (RXF 393) [%],growth at 0.01 µM (MDA-MB-231 [5]) [%],growth at 0.01 µM (MDA-MB-468 [6]) [%],growth at 0.1 µM (RPMI-8226 [7]) [%],growth at 0.1 µM (HOP-62) [%],growth at 0.1 µM (HCC 2998) [%],growth at 0.1 µM (SF-268) [%],growth at 0.1 µM (UACC-62 [8]) [%],growth at 0.1 µM (SK-OV-3) [%],growth at 1 µM (MOLT-4) [%],growth at 1 µM (SR) [%],other results
COc1cc2c(cc1OC)C(=O)/C(=C/c1cc(-c3ccc4c(c3)OCO4)n[nH]1)C2,37.1,5.45,6.18,3.2,97,95,97,100,100,97,106,93,93,100,97,96,106,105,97,38,GI50 (A549): 1.96 µM; GI50 (MDA-MB-231 [1]): 1.66 µM; growth at 1 µM (NCI-H23): 92%; growth at 1 µM (NCI-H322M): 82%; growth at 1 µM (COLO 205): 94%; growth at 1 µM (UACC-257): 94%; growth at 1 µM (IGROV-1): 86%; growth at 1 µM (DU-145): 77%; growth at 1 µM (MDA-MB-231 [9]): 88%; growth at 1 µM (MDA-MB-468 [10]): 54%; growth at 10 µM (NCI-H226): -72%; growth at 10 µM (SF-539 [11]): -96%; growth at 10 µM (OVCAR-3): -92%; growth at 10 µM (MCF7): -84%; growth at 100 µM (HCT-15): -69%; growth at 100 µM (SF-539 [12]): -94%; growth at 100 µM (SK-MEL-5 [13]): -97%; growth at 100 µM (UACC-62 [14]): -88%; growth at 100 µM (TK-10): -95%
COc1ccc(-c2cc(/C=C/C(=O)c3ccc(OC)c(OC)c3)[nH]n2)cc1,> 100,5.95,30,6.63,102,90,95,95,106,82,98,87,93,97,105,99,93,109,95,39,GI50 (A549): 1.88 µM; GI50 (MDA-MB-231 [1]): 2 µM; growth at 1 µM (NCI-H23): 98%; growth at 1 µM (NCI-H322M): 72%; growth at 1 µM (COLO 205): 95%; growth at 1 µM (UACC-257): 87%; growth at 1 µM (IGROV-1): 77%; growth at 1 µM (DU-145): 74%; growth at 1 µM (MDA-MB-231 [9]): 79%; growth at 1 µM (MDA-MB-468 [10]): 61%; growth at 10 µM (NCI-H226): -64%; growth at 10 µM (SF-539 [11]): -93%; growth at 10 µM (OVCAR-3): -95%; growth at 10 µM (MCF7): -82%; growth at 100 µM (HCT-15): -92%; growth at 100 µM (SF-539 [12]): -99%; growth at 100 µM (SK-MEL-5 [13]): -100%; growth at 100 µM (UACC-62 [14]): -100%; growth at 100 µM (TK-10): -98%
COc1cc(-c2cc(/C=C/C(=O)c3ccc4c(c3)OCO4)[nH]n2)cc(OC)c1OC,> 100,> 100,> 100,> 100,94,98,96,98,92,95,101,90,83,100,102,90,96,103,99,32,growth at 1 µM (NCI-H23): 97%; growth at 1 µM (NCI-H322M): 93%; growth at 1 µM (COLO 205): 93%; growth at 1 µM (UACC-257): 81%; growth at 1 µM (IGROV-1): 99%; growth at 1 µM (DU-145): 90%; growth at 1 µM (MDA-MB-231 [9]): 86%; growth at 1 µM (MDA-MB-468 [10]): 74%; growth at 10 µM (NCI-H226): 14%; growth at 10 µM (SF-539 [11]): -27%; growth at 10 µM (OVCAR-3): 4%; growth at 10 µM (MCF7): -1%; growth at 100 µM (HCT-15): -10%; growth at 100 µM (SF-539 [12]): -83%; growth at 100 µM (SK-MEL-5 [13]): 8%; growth at 100 µM (UACC-62 [14]): 22%; growth at 100 µM (TK-10): -47%
